One compound from patent publication US20240390413A1, “POLYMERS OBTAINED BY THE REACTION OF A PHENOLIC COMPOUND AND A CARBONYL COMPOUND AS ANTI-SARS-COV-2 AGENTS” (BASF SE, priority 2021, published 2024) can be followed below.

The subject of assay [1] is SARS-CoV-2. Type of assay: cell-based. The conditions noted are these: precision cut human lung slices; 1, 10 or 100 μg/ml; water control.
For assay [2], the system named is SARS-CoV-2. The class given is cell-based. Conditions: Calu3 cells; formulations A-1 to A-6 (1,000 to 0 μg/ml condensation product); Camostat 100 μM or 10 μM as control.

Read-outs that look alike come from different tables or passages of the source.

For `CN(C)C(=O)COC(=O)Cc1ccc(OC(=O)c2ccc(NC(=N)N)cc2)cc1` [Camostat], the viral titer entry is on record as “reduced the viral titer in a dose-dependent manner” in the assay with SARS-CoV-2 [1] and “reduction observed” with SARS-CoV-2 [2].
